Assay results as given in patent publication US9988406B2, “Forms of R)-3-(4-(2-(2-methyltetrazol-5-yl)pyridin-5-yl)-3-fluorophenyl)-5-hydroxymethyl oxazolidin-2-one dihydrogen phosphate” (Merck Sharp & Dohme Corp., priority 2009, dated 2018).

What was measured:
[1] = hygroscopicity / water content of the free acid and salt forms; format: physicochemical
[2] = stability of the crystalline free acid and salt forms; format: physicochemical

| Compound | hygroscopicity (in words) [1] | stability of the crystalline form (in words) [2] | water content ([1]; material as prepared) |
| --- | --- | --- | --- |
| (R)-3-(4-(2-(2-methyltetrazol-5-yl)pyridin-5-yl)-3-fluorophenyl)-5-hydroxymethyl oxazolidin-2-one dihydrogen phosphate [free acid] | non-hygroscopic | very stable at a relatively high temperature | – |
| Cn1nnc(-c2ccc(-c3ccc(N4CC(COP(=O)([O-])O)OC4=O)cc3F)cn2)n1.[Na+] (stereo not shown) [mono-sodium salt] | very hygroscopic | – | over 10 % by weight |
